The source of these data is US20130296427A1, “NERAMEXANE FOR THE TREATMENT OR PREVENTION OF TINNITUS RELATED WITH STRESS OR ACUTE HEARING LOSS” (MERZ PHARMA GmbH & CO. KGaA, priority 2011, published 2013).

The test system of the test is subjects with tinnitus caused by acute hearing loss, stress and other reasons. The test is described as follows: Two double-blind, randomized, placebo-controlled 17-week studies of neramexane mesylate in tinnitus; change in TBF-12 total score. The test is classed as in vivo, human. The conditions noted are these: FAS-LOCF; for Change in the TBF-12 total score from baseline to Week 17/EOT, mean (SD): neramexane mesylate 50 or 75 mg/d, 17 weeks; for LSmean [ner − plac], estimated difference Neramexane − Placebo in change of TBF-12 total score, adjusted for covariates from ANCOVA: Week 17/EOT, negative = superior to placebo. The method, then:
The objective was to assess the efficacy of neramexane as a treatment for tinnitus. The primary objectives of these two independent 17 weeks double-blind, randomized placebo-controlled studies were to compare the efficacy, tolerability and safety of neramexane mesylate at two different, weight-adapted dosages (50 or 75 mg/d) with placebo in subjects with tinnitus caused acute hearing loss, stress and other reasons.
In two independent, double-blind, multicenter, randomized, placebo-controlled, parallel-group studies, the efficacy of neramexane in subjects suffering from tinnitus caused by acute hearing loss, stress and other reasons were assessed.
In both studies, subjects were treated for 17 weeks with neramexane or placebo including a four-resp. five-week up-titration period, depending on study drug dose.
Patients with a target daily dose of 50 mg neramexane mesylate (<90 kg body weight) were to reach steady state after four weeks, patients with a target total daily dose of 75 mg neramexane mesylate 90 kg body weight) were to reach steady state after five weeks of treatment. For patients who experienced dose limiting adverse events with the 75 mg dose, the dosage was reduced by switching the patient to 50 mg/day. Patients unable to tolerate a minimum dosage of 50 mg/day discontinued.
Patients' eligibility for the studies was evaluated via a check of inclusion/exclusion criteria. The subject completed a Tinnitus-Beeinträchtigungs-Fragebogen (TBF-12=Tinnitus Handicap Inventory (THI-12)) (i.e., a 12-item modified and validated version (Greimel K V et al., Tinnitus-Beeinträchtigungs-Fragebogen (TBF-12). Manual. Frankfurt am Main: Swets & Zeitlinger B.V.; 2000) of the 25-item Tinnitus Handicap Inventory or THI (Newman C W, et al. Development of the Tinnitus Handicap Inventory. Arch Otolaryngol Head Neck Surg 1996; 122(2): 143-148; Newman C W, et al. Psychometric adequacy of the Tinnitus Handicap Inventory (THI) for evaluating treatment outcome. J Am Acad Audiol 1998; 9(2): 153-160.)). The TBF-12 items can be grouped in 2 factorial scores: an emotional-cognitive and a functional-communicational factor. At Visit 1 patients also completed a Tinnitus Rating Scale (TRS, Likert scores on Tinnitus Loudness, Tinnitus Impact on Life, and Tinnitus Annoyance), and the Hospital Anxiety and Depression Scale Audiology/psychoacoustic measurements were performed unless results from previous examinations performed no more than one year prior to Screening were available.
Neramexane mesylate immediate release tablets (12.5 mg and 25 mg, the manufacture thereof being disclosed in WO 2009/033649, whose respective content is incorporated herein by reference) and matching placebo tablets are administered as film coated tablets.
Primary Outcome • The change in TBF-12 total score from baseline (Visit 2) to the endpoint visit (Visit 7, i.e. Week 17 or end of treatment) was the primary efficacy endpoint in these studies.
All efficacy analyses were performed on the full analysis set (FAS) using the last-observation-carried-forward (LOCF) approach. For sensitivity purposes an analysis of the per-protocol set and of observed cases was performed additionally. All statistical tests used for testing the primary efficacy (confirmatory testing) and secondary efficacy criteria (exploratory), and all other statistical tests used for exploratory analyses were two-sided hypothesis tests performed at the 5% significance level. For all variables standard descriptive statistics were calculated.
Change from baseline (Visit 2) to Week 17 in TBF-12 total score was analyzed using an ANCOVA model with treatment group, gender and country as factors and baseline TBF-12 total score as covariate.

Consider `CC1(C)CC(C)(C)CC(C)(N)C1` [Neramexane, 1-amino-1,3,3,5,5-pentamethylcyclohexane], for which the “Change in the TBF-12 total score from baseline to Week 17/EOT, mean (SD)” value was 34/−3.1 ± 5.0 (tinnitus caused by acute hearing loss, N=34); 323/−2.4 ± 4.1 (tinnitus caused by other reasons, N=323); 41/−3.4 ± 4.2 (tinnitus caused by stress, N=41). The “LSmean [ner − plac], estimated difference Neramexane − Placebo in change of TBF-12 total score, adjusted for covariates from ANCOVA” value was −3.9 (tinnitus caused by acute hearing loss, P-value 0.0162); 0.2 (tinnitus caused by other reasons, P-value 0.5969); −2.3 (tinnitus caused by stress, P-value 0.0094).
